# Experimental data as given in patent US10111890B2, “9-aminomethyl minocycline compounds and uses thereof” (Paratek Pharmaceuticals, Inc., priority 2016, dated 2018).
# Key:
# [1] = Phase 1 multiple oral dose study: safety and tolerability (TEAEs, serum chemistry)
# [2] = system: ABSSSI known or suspected to be due to Gram-positive pathogens; assay: Phase 3 oral omadacycline vs oral linezolid in ABSSSI: Investigator's Assessment of Clinical Response at PTE; type: in vivo, human; conditions: for Overall clinical response at PTE: Clinical Success: investigator assessment; for Overall clinical response at PTE: Clinical Success / Overall clinical response at PTE: Clinical Failure / Overall clinical response at PTE: Clinical Failure or Indeterminate / Overall clinical response at PTE: Indeterminate: mITT
# [3] = 600 mg (n = 24), listed as omadacycline
# [4] = 300, 450, 600 mg once daily x 5 days
# [5] = Cellulitis/erysipelas, actual type
# [6] = Cellulitis/erysipelas, as randomized
structure (smiles),measurement,setting,value
"CN(C)c1cc(CNCC(C)(C)C)c(O)c2c1C[C@H]1C[C@H]3[C@H](N(C)C)C(O)=C(C(N)=O)C(=O)[C@@]3(O)C(O)=C1C2=O [Omadacycline, 9-[(2,2-dimethyl-propylamino)-methyl]-minocycline]","Any TEAE, % of subjects",[1]; 300 mg (n = 26),(19.2) %
same,"Any TEAE, n of subjects",[1]; 300 mg (n = 26),5 n
same,"Most frequent TEAEs: Dizziness, %",[1]; 300 mg (n = 26),(7.7) %
same,"Most frequent TEAEs: Nausea, %",[1]; 300 mg (n = 26),(7.7) %
same,"Most frequent TEAEs: Vomiting, %",[1]; 300 mg (n = 26),(7.7) %
same,"TEAEs leading to early discontinuation of study drug: All, %",[1]; 300 mg (n = 26),(3.8) %
same,"TEAEs leading to early discontinuation of study drug: Nausea, %",[1]; 300 mg (n = 26),(3.8) %
same,"TEAEs leading to early discontinuation of study drug: Vomiting, %",[1]; 300 mg (n = 26),(3.8) %
same,"Treatment-related TEAE, % of subjects",[1]; 300 mg (n = 26),(15.4) %
same,"Treatment-related TEAE, n of subjects",[1]; 300 mg (n = 26),4 n
same,"Treatment-related TEAE, % of subjects","[1]; 300 mg (n = 26), listed as omadacycline",15.4%
same,median change in alanine aminotransferase (ALT) concentration between baseline and Day 5,[1]; 300 mg omadacycline,−2.0 IU/L
same,"Any TEAE, % of subjects",[1]; 450 mg (n = 24),(12.5) %
same,"Any TEAE, n of subjects",[1]; 450 mg (n = 24),3 n
same,"Most frequent TEAEs: ALT increased, %",[1]; 450 mg (n = 24),(4.2) %
same,"Most frequent TEAEs: Nausea, %",[1]; 450 mg (n = 24),(4.2) %
same,"TEAEs leading to early discontinuation of study drug: ALT increased, %",[1]; 450 mg (n = 24),(4.2) %
same,"TEAEs leading to early discontinuation of study drug: All, %",[1]; 450 mg (n = 24),(4.2) %
same,"Treatment-related TEAE, % of subjects",[1]; 450 mg (n = 24),(8.3) %
same,"Treatment-related TEAE, n of subjects",[1]; 450 mg (n = 24),2 n
same,"Treatment-related TEAE, % of subjects","[1]; 450 mg (n = 24), listed as omadacycline",8.3%
same,median change in alanine aminotransferase (ALT) concentration between baseline and Day 5,[1]; 450 mg omadacycline,5.0 IU/L
same,"Any TEAE, % of subjects",[1]; 600 mg (n = 24),(25.0) %
same,"Any TEAE, n of subjects",[1]; 600 mg (n = 24),6 n
same,"Most frequent TEAEs: ALT increased, %",[1]; 600 mg (n = 24),(4.2) %
same,"Most frequent TEAEs: Diarrhea, %",[1]; 600 mg (n = 24),(8.3) %
same,"Most frequent TEAEs: Dizziness, %",[1]; 600 mg (n = 24),(4.2) %
same,"Most frequent TEAEs: Nausea, %",[1]; 600 mg (n = 24),(16.7) %
same,"Most frequent TEAEs: Vomiting, %",[1]; 600 mg (n = 24),(4.2) %
same,"TEAEs leading to early discontinuation of study drug: All, %",[1]; 600 mg (n = 24),(4.2) %
same,"TEAEs leading to early discontinuation of study drug: Lipase increased, %",[1]; 600 mg (n = 24),(4.2) %
same,"Treatment-related TEAE, % of subjects",[1]; 600 mg (n = 24),(25.0) %
same,"Treatment-related TEAE, n of subjects",[1]; 600 mg (n = 24),6 n
same,"Most frequent TEAEs: Nausea, %",[1]; [3],16.7%
same,"Treatment-related TEAE, % of subjects",[1]; [3],25.0%
same,median change in alanine aminotransferase (ALT) concentration between baseline and Day 5,[1]; 600 mg omadacycline,19.5 IU/L
same,serious TEAEs (SAEs),[1]; [4],no serious TEAEs (SAEs) reported
same,severity of TEAEs,[1]; [4],either mild or moderate in severity
same,"Any TEAE, % of subjects",[1]; Omadacycline Overall (n = 26),(38.5) %
same,"Any TEAE, n of subjects",[1]; Omadacycline Overall (n = 26),10 n
same,"Most frequent TEAEs: ALT increased, %",[1]; Omadacycline Overall (n = 26),(7.7) %
same,"Most frequent TEAEs: Diarrhea, %",[1]; Omadacycline Overall (n = 26),(7.7) %
same,"Most frequent TEAEs: Dizziness, %",[1]; Omadacycline Overall (n = 26),(11.5) %
same,"Most frequent TEAEs: Nausea, %",[1]; Omadacycline Overall (n = 26),(23.1) %
same,"Most frequent TEAEs: Vomiting, %",[1]; Omadacycline Overall (n = 26),(11.5) %
same,"TEAEs leading to early discontinuation of study drug: ALT increased, %",[1]; Omadacycline Overall (n = 26),(3.8) %
same,"TEAEs leading to early discontinuation of study drug: All, %",[1]; Omadacycline Overall (n = 26),(11.5) %
same,"TEAEs leading to early discontinuation of study drug: Lipase increased, %",[1]; Omadacycline Overall (n = 26),(3.8) %
same,"TEAEs leading to early discontinuation of study drug: Nausea, %",[1]; Omadacycline Overall (n = 26),(3.8) %
same,"TEAEs leading to early discontinuation of study drug: Vomiting, %",[1]; Omadacycline Overall (n = 26),(3.8) %
same,"Treatment-related TEAE, % of subjects",[1]; Omadacycline Overall (n = 26),(34.6) %
same,"Treatment-related TEAE, n of subjects",[1]; Omadacycline Overall (n = 26),9 n
same,"Any TEAE, % of subjects","[1]; Omadacycline Overall (n = 26), listed as omadacycline",38.5%
same,"nausea, % of subjects",[1]; omadacycline 300 and 450 mg dose groups,≤ 7.7%
same,highest individual ALT value,[1]; subject who received 450 mg in Period 1 then 300 mg in Period 2,150 IU/L
same,"Difference in Overall Clinical Success rate at PTE, omadacycline minus linezolid",[2]; CE-PTE,2.3%
same,Overall clinical response at PTE: Clinical Success,"[2]; Cellulitis/erysipelas, actual type of infection",76 (88.4) n (%)
same,Overall clinical response at PTE: Clinical Failure,[2]; [5],2 (2.3) n (%)
same,Overall clinical response at PTE: Clinical Failure or Indeterminate,[2]; [5],10 (11.6) n (%)
same,Overall clinical response at PTE: Indeterminate,[2]; [5],8 (9.3) n (%)
same,Overall clinical response at PTE: Clinical Failure,[2]; [6],2 (2.4) n (%)
same,Overall clinical response at PTE: Clinical Failure or Indeterminate,[2]; [6],10 (12.2) n (%)
same,Overall clinical response at PTE: Indeterminate,[2]; [6],8 (9.8) n (%)
same,Overall clinical response at PTE: Clinical Success,"[2]; Cellulitis/erysipelas, type of infection as randomized",72 (87.8) n (%)
same,Overall clinical response at PTE: Clinical Success,"[2]; Major Abscess, actual type of infection",54 (84.4) n (%)
same,Overall clinical response at PTE: Clinical Failure,"[2]; Major Abscess, actual type",2 (3.1) n (%)
same,Overall clinical response at PTE: Clinical Failure or Indeterminate,"[2]; Major Abscess, actual type",10 (15.6) n (%)
same,Overall clinical response at PTE: Indeterminate,"[2]; Major Abscess, actual type",8 (12.5) n (%)
same,Overall clinical response at PTE: Clinical Failure,"[2]; Major Abscess, as randomized",2 (3.1) n (%)
same,Overall clinical response at PTE: Clinical Failure or Indeterminate,"[2]; Major Abscess, as randomized",10 (15.6) n (%)
same,Overall clinical response at PTE: Indeterminate,"[2]; Major Abscess, as randomized",8 (12.5) n (%)
same,Overall clinical response at PTE: Clinical Success,"[2]; Major Abscess, type of infection as randomized",54 (84.4) n (%)
same,Overall clinical response at PTE: Clinical Success,"[2]; Wound Infection, actual type of infection",173 (82.4) n (%)
same,Overall clinical response at PTE: Clinical Failure,"[2]; Wound Infection, actual type",8 (3.8) n (%)
same,Overall clinical response at PTE: Clinical Failure or Indeterminate,"[2]; Wound Infection, actual type",37 (17.6) n (%)
same,Overall clinical response at PTE: Indeterminate,"[2]; Wound Infection, actual type",29 (13.8) n (%)
same,Overall clinical response at PTE: Clinical Failure,"[2]; Wound Infection, as randomized",8 (3.7) n (%)
same,Overall clinical response at PTE: Clinical Failure or Indeterminate,"[2]; Wound Infection, as randomized",37 (17.3) n (%)
same,Overall clinical response at PTE: Indeterminate,"[2]; Wound Infection, as randomized",29 (13.6) n (%)
